Assay results published in patent EP3636645A1, “PROCESS FOR THE PREPARATION OF SULFUR-SUBSTITUTED PYRIDINE DERIVATIVES” (Bayer Aktiengesellschaft, priority 2018, dated 2020).

Experiment: physchem
Assay type: physicochemical
Method: Die Bestimmung der logP-Werte erfolgte gemäß EEC Directive 79/831 Annex V.A8 durch HPLC (High Performance Liquid Chromatography) an einer Phasenumkehrsäule (C18) mit Hilfe folgender Methoden: Der logP[a] Wert wird durch LC-UV Messung im sauren Bereich bestimmt, mit 0,9 mL/L Ameisensäure in Wasser und 1,0 mL/L Ameisensäure in Acetonitril als Eluenten (linearer Gradient von 10% Acetonitrile bis 95% Acetonitril).
Der logP[n] Wert wird durch LC-UV Messung im neutralen Bereich bestimmt, mit 79 mg/L Ammoniumcarbonat in Wasser und Acetonitril als Eluenten (linearer Gradient von 10% Acetonitril bis 95% Acetonitril).
Die Kalibrierung wurde mit einer homologen Reihe geradkettiger Alkan-2-one (mit 3 bis 16 Kohlenstoffatomen) mit bekannten logP Werten durchgeführt. Die Werte zwischen aufeinanderfolgender Alkanone werden durch lineare Regression bestimmt.

SMILES: Cn1c(-c2ncccc2SC(F)(F)F)nc2cc(C(F)(F)F)ncc21 [Beispiel 1, 3-Methyl-6-(trifluormethyl)-2-{3-[(trifluormethyl)sulfanyl]pyridin-2-yl}-3H-imidazo [4,5-c] pyridin]
- chromatographic logP (hplc c18, acidic formic acid): 3
- chromatographic logP (hplc c18, ammonium carbonate): 2.97
